Like-named read-outs stand apart in the source and are kept apart here.
What was measured:
Assay type in all cases: binding
[1] = target: T1, murine TRIM21 PRY-SPRY domain (Mus musculus, UniProt Q62191); experiment: Differential scanning fluorimetry (DSF, ΔTm), mouse TRIM21 PRY-SPRY domain
T1 construct: mouse TRIM21 PRY-SPRY domain (residues V291-M470, UniProt-ID: Q62191); made in house; host or cells: E. coli BL21(DE3)
T1 sequence (Q62191 291-470): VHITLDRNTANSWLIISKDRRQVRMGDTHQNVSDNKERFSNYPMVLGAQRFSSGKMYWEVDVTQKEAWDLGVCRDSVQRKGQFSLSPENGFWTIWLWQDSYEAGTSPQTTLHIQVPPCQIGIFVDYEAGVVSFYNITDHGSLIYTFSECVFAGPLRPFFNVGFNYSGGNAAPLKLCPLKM
Method: (§1) Briefly, recombinant murine and human TRIM21 PRY-SPRY domain at a concentration of 8 μM were mixed with 2 mM compound in their respective SEC buffer. SYPRO Orange (5000×, Invitrogen) was added as a fluorescence probe (1 µl per mL). Subsequently, temperature-dependent protein unfolding profiles were measured using the QuantStudio™ 5 realtime PCR machine (Thermo Fisher). Excitation and emission filters were set to 465 nm and 590 nm, respectively. The temperature was raised with a step rate of 3 °C per minute. Data points were analysed with the internal software (Thermal Shift SoftwareTM Version 1.4, Thermo Fisher) using the Boltzmann equation to determine the inflection point of the transition curve.

[2] = target: T2, human TRIM21 PRY-SPRY domain (Homo sapiens, UniProt P19474); experiment: Differential scanning fluorimetry (DSF, ΔTm), human TRIM21 PRY-SPRY domain
T2 construct: Human TRIM21 PRY-SPRY domain (residues V287-I465, UniProt-ID: P19474); His6 (N, cleaved yes); SUMO (N, cleaved yes); made in house; host or cells: E. coli BL21(DE3)
Method: as §1

His-mTRIM21 PRYSPRY = target: T3, His-mTRIM21 PRYSPRY (Mus musculus, UniProt Q62191); experiment: SPR fragment screening and dose response, mouse TRIM21 PRY-SPRY
T3 construct: mouse TRIM21 PRY-SPRY domain (residues V291-M470, UniProt-ID: Q62191); made in house; host or cells: E. coli BL21(DE3)
T3 sequence (Q62191 291-470): T1 sequence (Q62191 291-470)
Method: (§2) His-mTRIM21 PRYSPRY and His-SUMO-hTRIM21 PRY-SPRY were immobilized onto flow channels (FC) FC2, FC3, and FC4 of a Series S sensor chip NTA (Cytiva). […] Proteins (10–20 µg mL^−1 in HBS-P+) were injected at 10 µL min^−1 to achieve response levels of 3500–4300 RU for mTRIM21 and 3600–4000 RU for hTRIM21. Flow channel 1 (FC1) was used as a reference surface. Surface deactivation and nickel stripping were achieved using 1 M ethanolamine and 350 mM ethylenediaminetetraacetic acid (EDTA), respectively.
(§3) Fragment screening was conducted by injecting 500 µM fragments diluted in running buffer (HBS-P+ with 1 mM TCEP and 2% (v/v) dimethyl sulfoxide (DMSO)) over all flow-channels for 30 s at 30 µL/min^−1. To account for surface drift, 50 µM of a control compound (Suramin) was injected every 15 fragment injections, and blank injections were performed every 5 fragments. Responses were analyzed by blank subtraction, reference subtraction (FC1), solvent correction, molecular weight adjustment, and drift correction using Biacore T200 Evaluation Software v3.2.1. The binding threshold for fragment hits was set based on the Suramin-binding response level.
The data was solvent-corrected, reference-subtracted (FC1), and blank-subtracted using the T200 Evaluation Software v3.2.1. Sensorgrams were subsequently replotted using Graphpad v.9 software.

[3] = target: T4, His-SUMO-hTRIM21 PRY-SPRY (Homo sapiens, UniProt P19474); experiment: SPR fragment screening, human TRIM21 PRY-SPRY
T4 construct: Human TRIM21 PRY-SPRY domain (residues V287-I465, UniProt-ID: P19474); made in house; host or cells: E. coli BL21(DE3)
Method: as §2, §3

[4] = single dose 500 µM fragment, relative response, suramin reference threshold 100 relative RU

T4 sequence (P19474 287-465): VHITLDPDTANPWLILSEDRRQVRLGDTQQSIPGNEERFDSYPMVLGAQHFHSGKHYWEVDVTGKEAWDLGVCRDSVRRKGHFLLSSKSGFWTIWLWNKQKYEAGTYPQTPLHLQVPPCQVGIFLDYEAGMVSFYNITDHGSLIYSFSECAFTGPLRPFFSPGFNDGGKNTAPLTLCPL
T2 sequence (P19474 287-465): as above

SMILES	Tm-shift mTRIM21 ([1]; 2 mM compound, 8 μM protein) [°C]	Tm-Shift hTRIM21 ([2]; 2 mM compound, 8 μM protein) [°C]	SPR mTRIM21 (Response) (His-mTRIM21 PRYSPRY; [4])	SPR hTRIM21 (Response) [3, 4]	Tm-shift mTRIM21 [1] [°C]	Tm-Shift hTRIM21 [2] [°C]	SPR mTRIM21 (Response) (His-mTRIM21 PRYSPRY)	SPR hTRIM21 (Response) [3]
CNC(=O)C1CNCCO1 (stereo not drawn) [Fragment Z1636723439]	0.4	0.1	142.5	46.15				
CN(C)C(=O)N1CCOCC12CCOC2 (stereo not drawn) [Fragment Z1998104358]					0	0.1	24.94	21.66
CN(C)c1noc(C2CCNCC2)n1 [Fragment Z1742054999]					0	-0.2	84.81	41.66
Cl.O=C(c1cn[nH]c1)N1CCCC1 [Fragment Z1266933824]					-0.3	-0.1	127.7	193.6
Nc1ccc(S(=O)(=O)Nc2ccccn2)cc1 [Fragment Z271004858]	-0.1	-0.1	106.3	79.01				
c1cnc(N2CCC3(CCOC3)C2)cn1 (stereo not drawn) [Fragment Z1401276297]	0.2	0.6	374.2	640.3				
Cc1cc(Cn2nc(C)ccc2=O)on1 [Fragment Z1079512010]	-0.3	-0.1	50.4	45.75				
CN1CCC(Oc2cccc(F)c2)C1=O (stereo not drawn) [Fragment Z1217960891]	-0.4	-0.4	74.94	55.59				
Cc1nccn1Cc1cccc(C#N)c1 [Fragment Z319545618]					-0.3	0	30.53	11.39
CC(=O)N1C[C@H]2CC[C@H]1c1ccccc12 [Fragment Z2017861827]					-0.7	-0.2	37.47	47.45
O=C1CN(Cc2ccccc2)CC(=O)N1 [Fragment Z3220108246]	-0.5	-0.1	58.83	60.94				
O=C(NC1CC1)c1cnn2cccnc12 [Fragment Z285642082]					-0.3	-0.2	44.74	43.71
CC(=O)NC1CNc2ccccc2C1 (stereo not drawn) [Fragment Z1492796719]	-0.1	-0.1	54.86	55.11				
CCc1nc(Cn2ccccc2=O)no1 [Fragment Z1162778919]	-0.2	-0.1	48.28	44.97				
O=C(COC(F)F)N1CC2CCCC2C1 (stereo not drawn) [Fragment Z2072621991]					0	-0.2	46.61	28.49
O=C(O)COc1ccc(F)cc1 [Fragment Z56978034]					-0.2	0	107.1	99.74
Cc1c(C(C)NS(C)(=O)=O)cnn1C (stereo not drawn) [Fragment Z369263636]	-0.1	0.1	35.15	36.54				
O=C(c1csnn1)N1CCOCC1 [Fragment Z741055844]	-0.2	-0.1	32.54	28.98				
Cc1nsc(N2CCCNCC2)n1 [Fragment Z1578665941]	-0.1	0.1	154	59.22				
NC(=O)N1CCN(C(=O)c2ccco2)CC1 [Fragment Z198194396]	-0.2	-0.2	38.54	34.19				
CS(=O)(=O)NCC1CCNCC1 [Fragment Z1741966151]					0.2	0.1	29.2	18.48
Cc1nc2[nH]c(C(C)C)cc(=O)n2n1 [Fragment Z111634612]	-0.4	-0.4	63.45	61.58				
CC(=O)NCCc1ccccc1C [Fragment Z52314092]	-0.3	-0.4	79.62	75.76				
CNC(=O)c1ccc(S(N)(=O)=O)cc1 [Fragment Z165170770]	-0.4	0	49.37	49.74				
NC(=S)Nc1ccccc1OC(F)(F)F [Fragment Z291279160]					-0.4	-0.2	37.66	45.42
O=S1(=O)CCN(Cc2ccco2)CC1 [Fragment Z1568344634]	-0.2	0	60.76	40.64				
CC(NC(=O)C1CC1)c1cccnc1 (stereo not drawn) [Fragment Z220996120]	-0.1	0	171.5	149.8				
CCCc1cc(=O)oc2cc(OC(C)=O)ccc12 [Fragment Z29634868]			78.57	95.03				
O=C(c1ccc2c(c1)OCO2)N1CCCCCC1 [Fragment Z31432226]	-0.6	-0.8						
OCc1cn(-c2ccc(Cl)cc2)nn1 [Fragment Z1374778753]							169.5	114.8

— PMC12166061, “Crystallographic fragment screening reveals ligand hotspots in TRIM21 PRY-SPRY domain” (Communications Chemistry, 2025)
